Data as given in the NIST ThermoML archive (doi:10.1021/je100526j).
Where “and” joins values, the source holds several entries; their conditions need not be identical. Equal values may be shown once.

What was measured:
[1] = for mass density: Liquid; for Normal melting temperature: Crystal, visual observation
[2] = xn = mol fraction of the nth substance listed; conditions: 101 kPa, Liquid

c1ccccc1 [benzene]
[1], 101 kPa
Conditions	mass density [kg/m3]
298.15 K	873.63
308.15 K	862.91
318.15 K	852.12
328.15 K	841.24
338.15 K	830.26

Conditions	Normal melting temperature [°C]
[1]	5.5

c1ccccc1 [benzene] + c1cc[nH]c1
[2], x2 = 0
Conditions	mass density [kg/m3]
298.15 K	873.63
308.15 K	862.91
318.15 K	852.12
328.15 K	841.24
338.15 K	830.26

C1CCCCC1 [cyclohexane]
[1], 101 kPa
Conditions	mass density [kg/m3]
298.15 K	773.87
308.15 K	764.38
318.15 K	754.77
328.15 K	745.04
338.15 K	735.18

Conditions	Normal melting temperature [°C]
[1]	7

C1CCCCC1 [cyclohexane] + c1cc[nH]c1
[2], x2 = 0
Conditions	mass density [kg/m3]
298.15 K	773.87
308.15 K	764.38
318.15 K	754.77
328.15 K	745.04
338.15 K	735.18

c1cc[nH]c1 [pyrrole]
[1], Vibrating tube method
Conditions	mass density [kg/m3]
298.15 K, 100 kPa	965.54
298.15 K, 101 kPa	965.54
298.15 K, 500 kPa	965.71
298.15 K, 1000 kPa	966
298.15 K, 1500 kPa	966.3
298.15 K, 2000 kPa	966.59
298.15 K, 2500 kPa	966.9
298.15 K, 3000 kPa	967.19
298.15 K, 4000 kPa	967.77
298.15 K, 5000 kPa	968.35
308.15 K, 101 kPa	956.83
318.15 K, 101 kPa	948.03
328.15 K, 101 kPa	939.14
338.15 K, 101 kPa	930.13

Conditions	Normal melting temperature
[1]	-23.5 °C and -23.4 °C

c1cc[nH]c1 [pyrrole] + C1CCCCC1
mass density [kg/m3], [2]
Conditions	298.15 K	308.15 K	318.15 K	328.15 K	338.15 K
x1 = 0.0749	786.03	776.43	766.72	756.88	746.91
x1 = 0.1409	797.78	788.17	778.44	768.58	758.6
x1 = 0.1864	805.48	795.87	786.14	776.3	766.32
x1 = 0.2637	819.91	810.32	800.64	790.86	780.96
x1 = 0.3549	837.14	827.63	818.03	808.35	798.62
x1 = 0.4446	854.23	844.82	835.34	825.81	816.3
x1 = 0.5058	866.13	856.8	847.4	837.91	828.38
x1 = 0.6032	884.76	875.58	866.33	856.97	847.56
x1 = 0.6712	898.56	889.48	880.32	870.17	861.68
x1 = 0.7183	908.28	899.28	890.2	881.03	871.79
x1 = 0.761	916.78	907.83	898.79	889.65	880.41
x1 = 0.8376	932.14	923.29	914.35	905.29	896.1
x1 = 0.8824	941.41	932.59	923.7	914.69	905.55
x1 = 0.9424	953.79	945.05	936.21	927.25	918.18
x1 = 1	965.54	956.83	948.03	939.14	930.13

c1cc[nH]c1 [pyrrole] + c1ccccc1
mass density [kg/m3], [2]
Conditions	298.15 K	308.15 K	318.15 K	328.15 K	338.15 K
x1 = 0.0447	878.11	867.49	856.79	846	835.1
x1 = 0.1287	886.6	876.17	865.66	855.06	844.34
x1 = 0.2144	894.89	884.68	874.36	863.95	853.41
x1 = 0.3142	904.35	894.36	884.28	874.1	863.91
x1 = 0.3916	911.83	902.01	892.11	882.08	871.95
x1 = 0.503	922.04	912.44	902.77	892.98	883.08
x1 = 0.5973	930.57	921.15	911.66	902.07	892.35
x1 = 0.6693	936.98	927.73	918.38	908.92	899.34
x1 = 0.7371	942.99	933.85	924.62	915.29	905.82
x1 = 0.8207	950.33	941.34	932.26	923.07	913.74
x1 = 0.8732	954.72	945.81	936.8	927.7	918.46
x1 = 0.9214	958.96	950.13	941.21	932.19	923.04
x1 = 0.979	963.65	954.92	946.08	937.17	928.12
x1 = 1	965.54	956.83	948.03	939.14	930.13
